This passage reports Ki results from ChEMBL document CHEMBL5725591, “Tricyclic PI3K inhibitor compounds and methods of use” (2018).

The target of the experiment is Phosphatidylinositol 4,5-bisphosphate 3-kinase catalytic subunit alpha isoform (Homo sapiens, UniProt P42336). In words: p110alpha (alpha) PI3K Binding Assay: PI3K Binding assays are intended for determining the biochemical potency of small molecule PI3K inhibitors. The PI3K lipid kinase reaction is performed in the presence of PIP2:3PS lipid substrate (Promega #V1792) and ATP. Following the termination if the kinase reaction, turnover of ATP to ADP by the phosphorylation of the lipid substrate is detected using the Promega ADP-Glo¿ (Promega #V1792) assay. For orientation: ADP-Glo first removes unused ATP, then detects ADP through luciferase.
Sequence of Phosphatidylinositol 4,5-bisphosphate 3-kinase catalytic subunit alpha isoform (P42336 whole entry, canonical isoform): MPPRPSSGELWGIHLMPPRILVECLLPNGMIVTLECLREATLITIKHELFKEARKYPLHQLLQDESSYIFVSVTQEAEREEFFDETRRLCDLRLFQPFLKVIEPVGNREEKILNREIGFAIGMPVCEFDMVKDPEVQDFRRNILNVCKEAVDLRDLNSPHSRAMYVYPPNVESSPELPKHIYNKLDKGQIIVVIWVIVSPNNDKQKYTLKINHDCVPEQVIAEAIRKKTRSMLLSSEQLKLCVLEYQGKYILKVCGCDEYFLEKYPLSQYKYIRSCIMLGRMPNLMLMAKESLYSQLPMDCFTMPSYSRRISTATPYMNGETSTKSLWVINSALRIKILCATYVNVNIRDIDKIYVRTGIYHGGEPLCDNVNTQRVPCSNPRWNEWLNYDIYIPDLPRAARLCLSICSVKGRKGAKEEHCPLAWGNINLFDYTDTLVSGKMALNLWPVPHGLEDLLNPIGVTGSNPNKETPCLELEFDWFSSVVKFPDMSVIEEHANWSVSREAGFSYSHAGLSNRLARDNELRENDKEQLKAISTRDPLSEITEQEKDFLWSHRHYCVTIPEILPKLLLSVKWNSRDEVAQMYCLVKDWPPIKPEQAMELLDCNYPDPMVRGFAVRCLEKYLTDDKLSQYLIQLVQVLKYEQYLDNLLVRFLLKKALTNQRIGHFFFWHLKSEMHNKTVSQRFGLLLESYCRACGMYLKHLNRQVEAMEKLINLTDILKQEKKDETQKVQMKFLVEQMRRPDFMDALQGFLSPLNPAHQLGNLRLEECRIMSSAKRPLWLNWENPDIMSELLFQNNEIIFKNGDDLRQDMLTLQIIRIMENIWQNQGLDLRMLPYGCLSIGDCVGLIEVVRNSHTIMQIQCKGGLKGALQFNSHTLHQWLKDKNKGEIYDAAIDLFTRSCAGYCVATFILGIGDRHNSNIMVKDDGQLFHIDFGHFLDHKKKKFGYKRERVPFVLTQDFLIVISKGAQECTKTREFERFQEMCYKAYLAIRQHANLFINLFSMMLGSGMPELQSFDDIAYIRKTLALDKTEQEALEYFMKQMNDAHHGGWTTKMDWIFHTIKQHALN
For the compound `Cn1cc(-c2nc3cc(N[C@H](C(N)=O)C4CC4)cc4c3n2CCCO4)cn1`, the Ki stood at 359 nM.

Turning to `CC[C@@H](Oc1cc2c3c(c1)nc(-c1ccc4oc(N)nc4c1)n3CCCO2)C(N)=O` (single isomer, unassigned), the Ki is 0.8 nM. Then `Cn1ncnc1-c1nc2cc(N[C@H](C(N)=O)C3CC3)cc3c2n1CCCO3`, with 396 nM; and `CC[C@H](Oc1cc2c3c(c1)nc(-c1ccc4oc(N)nc4c1)n3CCCO2)C(N)=O` (single isomer, unassigned), with 0.27 nM. Then `NC(=O)[C@@H](Nc1cc2c3c(c1)nc(-c1ccc4c(n1)OCCO4)n3CCCO2)C1CC1`, with 24.1 nM.

For orientation: Ki means a measure of affinity in units of concentration, obtained from inhibition or displacement.
